Reference: ChEMBL document CHEMBL2401692, “Synthesis, structure-activity relationships, and in vivo efficacy of the novel potent and selective anaplastic lymphoma kinase (ALK) inhibitor 5-chloro-N2-(2-isopropoxy-5-methyl-4-(piperidin-4-yl)phenyl)-N4-(2-(isopropylsulfonyl)phenyl)pyrimidine-2,4-diamine (LDK378) currently in phase 1 and phase …” (J Med Chem, 2013)

What was measured:
Rattus norvegicus [1] = experiment: Inhibition of ALK-mediated STAT3 phosphorylation in human KARPAS299 cells xenografted in Rowett nude rat at 50 mg/kg, po after 72 hrs Western blotting analysis relative to control; type: functional; details: KARPAS-299, 72 h
Rattus norvegicus [2] = experiment: Toxicity in po dosed Rowett nude rat xenografted with human NCI-H2228 cells assessed as body weight loss at 5 to 25 mg/kg, po; type: organism-based; design: dose 5-25 mg/kg, route oral; details: in vivo
Rattus norvegicus [3] = experiment: Toxicity in po dosed Rowett nude rat xenografted with human KARPAS299 cells assessed as body weight loss at 6.25 to 50 mg/kg, po; type: organism-based, KARPAS-299; design: dose 6.25-50 mg/kg, route oral; details: in vivo
NCI-H2228 [4] = experiment: Antitumor activity against human NCI-H2228 cells xenografted in Rowett nude rat assessed as tumor growth inhibition factor at 10 mg/kg, po for 14 days measured 7 to 72 hrs post dosing relative to control; type: functional
NCI-H2228 [5] = experiment: Antitumor activity against human NCI-H2228 cells xenografted in Rowett nude rat assessed as tumor growth inhibition factor at 5 mg/kg, po for 14 days measured 7 to 72 hrs post dosing relative to control; type: functional
KARPAS-299 [6] = experiment: Antitumor activity against human KARPAS299 cells xenografted in Rowett nude rat assessed as tumor regression at 25 mg/kg, po for 14 days measured 7 to 72 hrs post dosing relative to control; type: functional
[7] = Oral bioavailability in cynomolgus monkey at 60 mg/kg; type: ADME, organism-based, Macaca fascicularis; details: in vivo
[8] = Cmax in cynomolgus monkey at 60 mg/kg, po; type: ADME, organism-based, Macaca fascicularis; design: dose 60 mg/kg, route oral; details: in vivo
[9] = Half life in cynomolgus monkey at 5 mg/kg, iv; type: ADME, organism-based, Macaca fascicularis; design: dose 5 mg/kg, route intravenous; details: in vivo
[10] = AUC in cynomolgus monkey at 5 mg/kg, iv; type: ADME, organism-based, Macaca fascicularis; design: dose 5 mg/kg, route intravenous; details: plasma
[11] = Tmax in Beagle dog at 20 mg/kg, po; type: ADME, organism-based, Canis lupus familiaris; design: dose 20 mg/kg, route oral; details: in vivo
[12] = Tmax in Beagle dog at 5 mg/kg, iv; type: ADME, organism-based, Canis lupus familiaris; design: dose 5 mg/kg, route intravenous; details: in vivo
[13] = Cmax in Beagle dog at 5 mg/kg, iv; type: ADME, organism-based, Canis lupus familiaris; design: dose 5 mg/kg, route intravenous; details: in vivo
[14] = AUC in Beagle dog at 5 mg/kg, iv; type: ADME, organism-based, Canis lupus familiaris; design: dose 5 mg/kg, route intravenous; details: plasma
[15] = Oral bioavailability in Sprague-Dawley rat at 10 mg/kg; type: ADME, organism-based; details: in vivo
[16] = Tmax in Sprague-Dawley rat at 10 mg/kg, po; type: ADME, organism-based; design: dose 10 mg/kg, route oral; details: in vivo
[17] = Tmax in Sprague-Dawley rat at 3 mg/kg, iv; type: ADME, organism-based; design: dose 3 mg/kg, route intravenous; details: in vivo
[18] = Plasma clearance in Sprague-Dawley rat at 3 mg/kg, iv; type: ADME, organism-based; design: dose 3 mg/kg, route intravenous
[19] = Oral bioavailability in BALB/c mouse at 20 mg/kg; type: ADME, organism-based; details: in vivo
[20] = Tmax in BALB/c mouse at 20 mg/kg, po; type: ADME, organism-based; design: dose 20 mg/kg, route oral; details: in vivo
[21] = Cmax in BALB/c mouse at 20 mg/kg, po; type: ADME, organism-based; design: dose 20 mg/kg, route oral; details: in vivo
[22] = AUC in BALB/c mouse at 20 mg/kg, po; type: ADME, organism-based; design: dose 20 mg/kg, route oral; details: plasma
[23] = Cmax in BALB/c mouse at 5 mg/kg, iv; type: ADME, organism-based; design: dose 5 mg/kg, route intravenous; details: in vivo
[24] = Volume of distribution at steady state in BALB/c mouse at 5 mg/kg, iv; type: ADME, organism-based; design: dose 5 mg/kg, route intravenous; details: in vivo, read-out: Vdss
[25] = Plasma clearance in BALB/c mouse at 5 mg/kg, iv; type: ADME, organism-based; design: dose 5 mg/kg, route intravenous
[26] = AUC in BALB/c mouse at 5 mg/kg, iv; type: ADME, organism-based; design: dose 5 mg/kg, route intravenous; details: plasma
[27] = target: BDNF/NT-3 growth factors receptor (Homo sapiens, UniProt Q16620); experiment: Inhibition of TEL-fused TRKB (unknown origin) by cell-based assay
[28] = target: Hepatocyte growth factor receptor (Homo sapiens, UniProt P08581); experiment: Inhibition of TEL-fused MET (unknown origin) by cell-based assay
[29] = target: Tyrosine-protein kinase Lck (Homo sapiens, UniProt P06239); experiment: Inhibition of TEL-fused LCK (unknown origin) by cell-based assay
[30] = target: T1, Tyrosine-protein kinase Lyn (Homo sapiens, UniProt P07948); experiment: Inhibition of TEL-fused LYN (unknown origin) by cell-based assay
[31] = target: Vascular endothelial growth factor receptor 2 (Homo sapiens, UniProt P35968); experiment: Inhibition of TEL-fused KDR (unknown origin) by cell-based assay
[32] = target: Mast/stem cell growth factor receptor Kit (Homo sapiens, UniProt P10721); experiment: Inhibition of TEL-fused cKIT (unknown origin) by cell-based assay
[33] = target: Receptor-type tyrosine-protein kinase FLT3 (Homo sapiens, UniProt P36888); experiment: Inhibition of TEL-fused FLT3 (unknown origin) by cell-based assay
[34] = target: Fibroblast growth factor receptor 3 (Homo sapiens, UniProt P22607); experiment: Inhibition of TEL-fused FGFR3 (unknown origin) by cell-based assay
[35] = target: Tyrosine-protein kinase SYK (Homo sapiens, UniProt P43405); experiment: Inhibition of SYK (unknown origin) after 60 mins
[36] = target: Platelet-derived growth factor receptor alpha (Homo sapiens, UniProt P16234); experiment: Inhibition of PDGFRalpha (unknown origin) after 60 mins
[37] = target: T1, Tyrosine-protein kinase Lyn; experiment: Inhibition of LYN (unknown origin) after 60 mins
[38] = target: Glycogen synthase kinase-3 beta (Homo sapiens, UniProt P49841); experiment: Inhibition of GSK3beta (unknown origin) after 60 mins
[39] = target: Fibroblast growth factor receptor 2 (Homo sapiens, UniProt P21802); experiment: Inhibition of FGFR2 (unknown origin) after 60 mins
[40] = target: Tyrosine-protein kinase BTK (Homo sapiens, UniProt Q06187); experiment: Inhibition of BTK (unknown origin) after 60 mins
Rhesus monkey = experiment: Cardiotoxicity in monkey assessed as QTc prolongation; type: toxicity, organism-based, Macaca mulatta; details: in vivo
[41] = Intrinsic clearance in mouse liver microsomes; type: ADME, Microsome; details: read-out: CLH
[42] = Intrinsic clearance in rat liver microsomes; type: ADME, Microsome; details: read-out: CLH
NCI-H2228 [43] = details: Homo sapiens
Description: Antitumor activity against human NCI-H2228 cells xenografted in po dosed Rowett nude rat assessed as tumor growth inhibition administered for 14 days measured 7 to 72 hrs post dosing

KARPAS-299 [44] = details: Homo sapiens
Description: Antitumor activity against human KARPAS299 cells xenografted in po dosed Rowett nude rat assessed as tumor growth inhibition administered for 14 days measured 7 to 72 hrs post dosing

T1 sequence (P07948 whole entry, the tested form may be a part): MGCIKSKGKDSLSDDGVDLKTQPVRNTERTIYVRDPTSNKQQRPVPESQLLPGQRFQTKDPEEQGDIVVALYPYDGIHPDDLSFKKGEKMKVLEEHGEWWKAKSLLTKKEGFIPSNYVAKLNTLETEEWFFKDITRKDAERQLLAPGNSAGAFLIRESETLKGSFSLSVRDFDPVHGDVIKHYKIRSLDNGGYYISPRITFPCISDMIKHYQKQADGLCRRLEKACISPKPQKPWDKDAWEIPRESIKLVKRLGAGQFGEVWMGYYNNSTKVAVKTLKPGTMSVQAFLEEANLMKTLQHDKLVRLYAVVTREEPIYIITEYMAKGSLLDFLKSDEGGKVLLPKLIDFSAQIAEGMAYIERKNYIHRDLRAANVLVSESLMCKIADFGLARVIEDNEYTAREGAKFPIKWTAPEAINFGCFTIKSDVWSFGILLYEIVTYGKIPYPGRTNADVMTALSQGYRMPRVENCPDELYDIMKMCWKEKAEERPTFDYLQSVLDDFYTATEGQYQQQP
Chain of Vascular endothelial growth factor receptor 2 (P35968 20-1356 limits assumed): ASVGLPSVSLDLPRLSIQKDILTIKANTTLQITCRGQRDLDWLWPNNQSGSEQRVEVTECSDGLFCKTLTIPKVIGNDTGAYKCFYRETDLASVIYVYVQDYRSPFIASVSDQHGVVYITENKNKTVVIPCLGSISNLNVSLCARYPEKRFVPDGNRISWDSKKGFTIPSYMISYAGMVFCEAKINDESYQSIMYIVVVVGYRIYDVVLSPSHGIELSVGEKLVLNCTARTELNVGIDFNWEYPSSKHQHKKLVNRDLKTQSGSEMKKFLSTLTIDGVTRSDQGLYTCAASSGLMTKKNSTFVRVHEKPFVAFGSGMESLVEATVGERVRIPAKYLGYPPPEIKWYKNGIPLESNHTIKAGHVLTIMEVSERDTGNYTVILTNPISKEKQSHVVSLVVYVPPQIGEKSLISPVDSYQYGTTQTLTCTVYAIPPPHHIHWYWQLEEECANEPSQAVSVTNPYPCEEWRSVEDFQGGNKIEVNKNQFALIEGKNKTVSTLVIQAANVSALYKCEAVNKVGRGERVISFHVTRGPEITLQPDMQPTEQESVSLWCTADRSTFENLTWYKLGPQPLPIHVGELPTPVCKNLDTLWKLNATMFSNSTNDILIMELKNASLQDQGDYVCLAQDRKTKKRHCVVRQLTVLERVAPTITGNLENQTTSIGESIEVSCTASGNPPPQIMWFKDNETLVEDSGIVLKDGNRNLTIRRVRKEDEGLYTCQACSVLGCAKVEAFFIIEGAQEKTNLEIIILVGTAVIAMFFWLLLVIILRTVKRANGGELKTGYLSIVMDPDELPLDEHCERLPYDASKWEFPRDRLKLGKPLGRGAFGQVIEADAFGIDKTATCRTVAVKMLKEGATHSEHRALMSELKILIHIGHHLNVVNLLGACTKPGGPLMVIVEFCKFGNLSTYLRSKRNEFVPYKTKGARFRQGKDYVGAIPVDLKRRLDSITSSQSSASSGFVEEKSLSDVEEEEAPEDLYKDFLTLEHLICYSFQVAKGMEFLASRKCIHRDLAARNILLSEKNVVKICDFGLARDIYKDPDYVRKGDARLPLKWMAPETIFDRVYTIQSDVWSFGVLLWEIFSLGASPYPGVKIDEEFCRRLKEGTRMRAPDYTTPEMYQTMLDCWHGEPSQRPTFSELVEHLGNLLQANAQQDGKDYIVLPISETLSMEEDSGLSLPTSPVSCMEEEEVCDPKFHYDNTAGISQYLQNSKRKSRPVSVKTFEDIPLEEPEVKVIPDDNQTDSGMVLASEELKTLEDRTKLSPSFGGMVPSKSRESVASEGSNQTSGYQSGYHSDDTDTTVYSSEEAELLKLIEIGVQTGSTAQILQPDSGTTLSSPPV
Chain of Hepatocyte growth factor receptor (P08581 25-1390 limits assumed): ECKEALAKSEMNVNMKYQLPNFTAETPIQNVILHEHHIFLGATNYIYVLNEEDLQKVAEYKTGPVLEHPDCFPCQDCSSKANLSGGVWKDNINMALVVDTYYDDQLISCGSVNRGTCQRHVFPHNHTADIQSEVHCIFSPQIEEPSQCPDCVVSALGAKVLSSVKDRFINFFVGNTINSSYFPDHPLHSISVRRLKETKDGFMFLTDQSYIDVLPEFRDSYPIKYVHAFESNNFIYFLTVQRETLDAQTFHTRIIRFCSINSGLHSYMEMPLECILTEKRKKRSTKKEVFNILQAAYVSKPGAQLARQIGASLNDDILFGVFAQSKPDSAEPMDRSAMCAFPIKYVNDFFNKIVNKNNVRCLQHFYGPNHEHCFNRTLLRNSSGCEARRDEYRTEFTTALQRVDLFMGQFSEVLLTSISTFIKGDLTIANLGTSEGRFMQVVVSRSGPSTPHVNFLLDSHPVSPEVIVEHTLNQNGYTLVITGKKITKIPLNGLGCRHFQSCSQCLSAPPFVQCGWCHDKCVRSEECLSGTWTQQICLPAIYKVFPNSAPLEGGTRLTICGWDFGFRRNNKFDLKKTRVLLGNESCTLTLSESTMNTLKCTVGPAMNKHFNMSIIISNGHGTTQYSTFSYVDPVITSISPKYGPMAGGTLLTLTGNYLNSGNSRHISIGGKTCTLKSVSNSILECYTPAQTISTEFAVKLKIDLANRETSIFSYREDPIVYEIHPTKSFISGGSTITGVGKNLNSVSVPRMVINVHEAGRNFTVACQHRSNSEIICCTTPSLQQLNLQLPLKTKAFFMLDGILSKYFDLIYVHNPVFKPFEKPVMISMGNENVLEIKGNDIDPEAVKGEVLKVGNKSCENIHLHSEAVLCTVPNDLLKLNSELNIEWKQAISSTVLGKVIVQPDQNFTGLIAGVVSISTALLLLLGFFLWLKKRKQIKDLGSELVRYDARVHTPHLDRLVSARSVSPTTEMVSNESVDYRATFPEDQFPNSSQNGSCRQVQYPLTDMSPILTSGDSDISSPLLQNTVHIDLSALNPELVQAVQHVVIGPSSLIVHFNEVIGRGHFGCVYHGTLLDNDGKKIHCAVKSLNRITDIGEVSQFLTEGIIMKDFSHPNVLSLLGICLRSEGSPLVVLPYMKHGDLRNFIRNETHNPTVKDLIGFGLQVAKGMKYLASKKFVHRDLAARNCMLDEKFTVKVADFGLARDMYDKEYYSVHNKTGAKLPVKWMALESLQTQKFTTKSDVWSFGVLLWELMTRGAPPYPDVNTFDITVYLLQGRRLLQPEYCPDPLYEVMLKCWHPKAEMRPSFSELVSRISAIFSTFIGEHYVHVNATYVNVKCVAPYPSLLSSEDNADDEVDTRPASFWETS
Chain of Platelet-derived growth factor receptor alpha (P16234 whole entry): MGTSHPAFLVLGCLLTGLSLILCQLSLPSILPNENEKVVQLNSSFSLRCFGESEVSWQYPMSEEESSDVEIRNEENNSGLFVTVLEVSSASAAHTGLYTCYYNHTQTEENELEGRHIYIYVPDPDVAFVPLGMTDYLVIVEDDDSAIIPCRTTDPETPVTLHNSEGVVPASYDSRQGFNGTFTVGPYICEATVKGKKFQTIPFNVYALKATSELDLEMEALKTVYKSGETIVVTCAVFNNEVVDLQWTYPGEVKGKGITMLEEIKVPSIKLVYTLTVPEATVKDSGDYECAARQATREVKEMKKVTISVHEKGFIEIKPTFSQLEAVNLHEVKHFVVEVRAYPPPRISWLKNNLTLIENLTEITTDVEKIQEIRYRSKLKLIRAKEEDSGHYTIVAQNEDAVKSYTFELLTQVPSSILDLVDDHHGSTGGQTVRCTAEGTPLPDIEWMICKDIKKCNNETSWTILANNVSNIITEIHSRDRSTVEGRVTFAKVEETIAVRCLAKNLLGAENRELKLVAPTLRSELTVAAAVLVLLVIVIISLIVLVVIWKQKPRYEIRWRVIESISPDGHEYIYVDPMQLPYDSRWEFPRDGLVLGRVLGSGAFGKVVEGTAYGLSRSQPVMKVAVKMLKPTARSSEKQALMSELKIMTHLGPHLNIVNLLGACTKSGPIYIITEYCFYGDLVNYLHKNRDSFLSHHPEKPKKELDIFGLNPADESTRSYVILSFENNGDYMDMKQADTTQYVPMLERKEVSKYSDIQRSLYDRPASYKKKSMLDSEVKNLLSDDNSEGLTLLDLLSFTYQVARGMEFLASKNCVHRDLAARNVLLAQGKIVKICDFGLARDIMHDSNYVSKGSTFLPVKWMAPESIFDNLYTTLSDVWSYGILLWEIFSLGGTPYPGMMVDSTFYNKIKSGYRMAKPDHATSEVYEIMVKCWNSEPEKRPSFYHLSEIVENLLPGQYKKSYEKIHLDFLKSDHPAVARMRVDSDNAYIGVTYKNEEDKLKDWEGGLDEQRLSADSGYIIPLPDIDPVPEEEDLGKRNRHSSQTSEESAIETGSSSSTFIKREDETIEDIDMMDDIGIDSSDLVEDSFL
Chain of Tyrosine-protein kinase Lck (P06239 whole entry, the tested form may be a part): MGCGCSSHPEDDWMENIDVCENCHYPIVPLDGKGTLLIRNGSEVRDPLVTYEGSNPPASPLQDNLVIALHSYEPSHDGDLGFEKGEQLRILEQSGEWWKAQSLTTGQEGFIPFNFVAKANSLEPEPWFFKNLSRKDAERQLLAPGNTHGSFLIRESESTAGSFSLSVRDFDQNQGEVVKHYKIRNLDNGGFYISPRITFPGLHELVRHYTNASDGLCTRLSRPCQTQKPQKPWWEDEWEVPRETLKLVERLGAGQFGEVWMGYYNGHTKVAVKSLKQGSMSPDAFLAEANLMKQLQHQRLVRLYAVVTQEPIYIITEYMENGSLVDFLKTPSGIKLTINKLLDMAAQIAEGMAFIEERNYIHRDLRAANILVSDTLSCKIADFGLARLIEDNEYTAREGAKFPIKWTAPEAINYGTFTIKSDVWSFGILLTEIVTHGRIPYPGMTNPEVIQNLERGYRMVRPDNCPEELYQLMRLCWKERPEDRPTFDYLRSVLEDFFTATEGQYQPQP

With Cc1cc(Nc2ncc(Cl)c(Nc3ccccc3S(=O)(=O)C(C)C)n2)c(OC(C)C)cc1C1CCNCC1 [CERITINIB] the inhibition in vivo at 50 mg/kg (Rattus norvegicus [1]) was 80%, the Activity (Rattus norvegicus [2]) was “Non-toxic” and the Activity (Rattus norvegicus [3]) was “Non-toxic”. It also gave a T/C (NCI-H2228 [4]) of 2%, a T/C (NCI-H2228 [5]) of 67% and a T/C (KARPAS-299 [6]) of -33%. It also gave a bioavailability [7] of 56%, a Cmax [8] of 1700 nM and a half-life [9] of 26 h. The AUC [10] was 11.3 µM·h, the Tmax [11] was 8 h and the Tmax [12] was 1.8 min. The Cmax [13] was 2330 nM, the AUC [14] was 18.1 µM·h and the bioavailability [15] was 66%. The Tmax [16] was 7 h, the Tmax [17] was 1.8 min and the clearance [18] was 36.8 mL/min/kg. The bioavailability [19] was 55%, the Tmax [20] was 7 h and the Cmax [21] was 696 nM. For the same compound, the AUC [22] was 12.3 µM·h, the Cmax [23] was 1760 nM and the Vd [24] was 9.7 L/kg. For the same compound, the clearance [25] was 26.6 mL/min/kg, the AUC [26] was 5.63 µM·h and the IC50 [27] was 1830 nM. It also gave an IC50 [28] of 1340 nM, an IC50 [29] of 672 nM and an IC50 [30] of 2310 nM. For the same compound, the IC50 [31] was 4210 nM, the IC50 [32] was 2860 nM and the IC50 [33] was 3140 nM. For the same compound, the IC50 [34] was over 10000 nM, the IC50 [35] was 3050 nM and the IC50 [36] was 1140 nM. For the same compound, the IC50 [37] was 840 nM, the IC50 [38] was over 10000 nM and the IC50 [39] was 260 nM. For the same compound, the IC50 [40] was 3360 nM, the Activity (Rhesus monkey) was “Non-toxic” and the microsomal CLint [41] was 15 µL/min/mg. The microsomal CLint [42] was 10 µL/min/mg, the TGI (NCI-H2228 [43]) was “Dose-dependent effect” and the TGI (KARPAS-299 [44]) was “Dose-dependent effect”.
